What all share (test): biochemical
Holding throughout (assay type): biochemical

Experiment [1] has as its target 363 human kinases (including Aurora A/B/C) (Homo sapiens, UniProt O43293). As to conditions: ZIPK/DAPK3; for remaining activity at 0.5 µM / remaining activity at 0.1 µM: read-out: % Enzyme Activity (relative to DMSO controls); for remaining activity at 0.1 µM: 100 nM.
Source text: (§1) However, the Aurora A/B selectivity ratios derived from our in vitro and in vivo data can be compared to prioritize inhibitors.
Experiment [2] addresses 363 human kinases (including Aurora A/B/C) (Homo sapiens, UniProt Q9HAZ1). As to conditions: CLK4, [ATP] 100 µM; for remaining activity at 0.5 µM / remaining activity at 0.1 µM: read-out: % Enzyme Activity (relative to DMSO controls); for remaining activity at 0.1 µM: 100 nM.
Source text: as §1
The target of experiment [3] is 363 human kinases (including Aurora A/B/C) (Homo sapiens, UniProt P36507). As to conditions: MEK2; for remaining activity at 0.5 µM / remaining activity at 0.1 µM: read-out: % Enzyme Activity (relative to DMSO controls); for remaining activity at 0.1 µM: 100 nM.
Source text: as §1
Experiment [4] addresses T1, 363 human kinases (including Aurora A/B/C) (Homo sapiens, UniProt Q14164).
T1 sequence (Q14164 1-716): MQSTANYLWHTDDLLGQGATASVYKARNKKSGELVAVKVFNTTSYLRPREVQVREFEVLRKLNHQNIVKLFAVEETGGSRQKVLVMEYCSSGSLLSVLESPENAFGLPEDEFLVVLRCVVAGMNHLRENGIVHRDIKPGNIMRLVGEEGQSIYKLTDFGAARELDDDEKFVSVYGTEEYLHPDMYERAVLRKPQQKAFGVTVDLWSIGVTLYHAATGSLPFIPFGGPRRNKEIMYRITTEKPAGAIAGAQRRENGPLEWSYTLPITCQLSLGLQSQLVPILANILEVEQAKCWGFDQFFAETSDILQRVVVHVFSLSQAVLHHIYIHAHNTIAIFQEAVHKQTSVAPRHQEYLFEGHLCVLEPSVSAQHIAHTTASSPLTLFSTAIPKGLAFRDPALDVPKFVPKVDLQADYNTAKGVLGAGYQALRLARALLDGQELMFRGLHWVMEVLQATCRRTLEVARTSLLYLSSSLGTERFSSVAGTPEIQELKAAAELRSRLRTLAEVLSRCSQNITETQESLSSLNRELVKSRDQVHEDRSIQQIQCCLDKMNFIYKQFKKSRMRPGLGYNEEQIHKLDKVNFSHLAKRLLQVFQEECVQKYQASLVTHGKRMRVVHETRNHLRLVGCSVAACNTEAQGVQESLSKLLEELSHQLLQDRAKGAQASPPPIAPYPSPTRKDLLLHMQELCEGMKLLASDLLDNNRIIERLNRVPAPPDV
As to conditions: for remaining activity at 0.1 µM: 100 nM.
Source text: as §1

Experiment [5] concerns the target 363 human kinases (including Aurora A/B/C) (Homo sapiens, UniProt Q6IQ55). The note with it: TTBK2; for remaining activity at 0.5 µM / remaining activity at 0.1 µM: read-out: % Enzyme Activity (relative to DMSO controls); for remaining activity at 0.1 µM: 100 nM.
Source text: as §1
The target in experiment [6] is 363 human kinases (including Aurora A/B/C) (Homo sapiens, UniProt P31751). The note with it: AKT2, [ATP] 100 µM; for remaining activity at 0.5 µM / remaining activity at 0.1 µM: read-out: % Enzyme Activity (relative to DMSO controls); for remaining activity at 0.1 µM: 100 nM.
Source text: as §1
Experiment [7] concerns the target T2, 363 human kinases (including Aurora A/B/C) (Homo sapiens, UniProt Q6VAB6).
T2 sequence (Q6VAB6 1-950): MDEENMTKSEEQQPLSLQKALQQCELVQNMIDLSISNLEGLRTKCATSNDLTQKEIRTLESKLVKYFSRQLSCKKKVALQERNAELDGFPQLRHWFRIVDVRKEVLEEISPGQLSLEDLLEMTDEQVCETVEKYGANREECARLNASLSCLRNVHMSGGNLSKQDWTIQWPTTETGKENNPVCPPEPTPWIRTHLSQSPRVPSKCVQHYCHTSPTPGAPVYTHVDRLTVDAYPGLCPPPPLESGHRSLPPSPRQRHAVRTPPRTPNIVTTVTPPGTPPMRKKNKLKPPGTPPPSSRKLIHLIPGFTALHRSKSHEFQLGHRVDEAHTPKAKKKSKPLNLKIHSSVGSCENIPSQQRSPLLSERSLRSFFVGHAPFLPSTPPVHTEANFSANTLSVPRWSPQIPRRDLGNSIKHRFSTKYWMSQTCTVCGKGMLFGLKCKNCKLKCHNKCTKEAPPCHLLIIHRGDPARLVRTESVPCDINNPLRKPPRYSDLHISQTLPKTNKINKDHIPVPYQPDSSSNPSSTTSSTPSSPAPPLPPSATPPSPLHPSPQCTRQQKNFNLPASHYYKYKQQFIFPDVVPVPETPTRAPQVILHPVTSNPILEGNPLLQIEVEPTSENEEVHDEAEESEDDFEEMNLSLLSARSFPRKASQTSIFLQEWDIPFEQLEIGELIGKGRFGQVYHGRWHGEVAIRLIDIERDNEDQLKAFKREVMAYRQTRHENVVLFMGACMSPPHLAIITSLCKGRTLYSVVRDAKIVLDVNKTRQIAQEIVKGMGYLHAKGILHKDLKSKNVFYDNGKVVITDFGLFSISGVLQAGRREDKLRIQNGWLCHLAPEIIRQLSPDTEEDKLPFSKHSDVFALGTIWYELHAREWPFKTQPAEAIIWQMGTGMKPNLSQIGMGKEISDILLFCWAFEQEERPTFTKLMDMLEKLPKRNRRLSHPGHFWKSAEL
The note with it: KSR2; for remaining activity at 0.5 µM / remaining activity at 0.1 µM: read-out: % Enzyme Activity (relative to DMSO controls); for remaining activity at 0.1 µM: 100 nM.
Source text: as §1

For experiment [8], the target named is 363 human kinases (including Aurora A/B/C) (Homo sapiens, UniProt Q13627). As to conditions: DYRK1/DYRK1A, [ATP] 50 µM; for remaining activity at 0.5 µM / remaining activity at 0.1 µM: read-out: % Enzyme Activity (relative to DMSO controls); for remaining activity at 0.1 µM: 100 nM.
Source text: as §1
Experiment [9] deals with 363 human kinases (including Aurora A/B/C) (Homo sapiens, UniProt Q13464). As to conditions: ROCK1; for remaining activity at 0.5 µM / remaining activity at 0.1 µM: read-out: % Enzyme Activity (relative to DMSO controls); for remaining activity at 0.1 µM: 100 nM.
Source text: as §1
The mark [10] stands for this setting: IKKe/IKBKE, 500 nM, read-out: % Enzyme Activity (relative to DMSO controls).

Like-named read-outs stand apart in the source and are kept apart here.

363 human kinases (including Aurora A/B/C) (Homo sapiens, UniProt O43293), sequence (O43293 whole entry): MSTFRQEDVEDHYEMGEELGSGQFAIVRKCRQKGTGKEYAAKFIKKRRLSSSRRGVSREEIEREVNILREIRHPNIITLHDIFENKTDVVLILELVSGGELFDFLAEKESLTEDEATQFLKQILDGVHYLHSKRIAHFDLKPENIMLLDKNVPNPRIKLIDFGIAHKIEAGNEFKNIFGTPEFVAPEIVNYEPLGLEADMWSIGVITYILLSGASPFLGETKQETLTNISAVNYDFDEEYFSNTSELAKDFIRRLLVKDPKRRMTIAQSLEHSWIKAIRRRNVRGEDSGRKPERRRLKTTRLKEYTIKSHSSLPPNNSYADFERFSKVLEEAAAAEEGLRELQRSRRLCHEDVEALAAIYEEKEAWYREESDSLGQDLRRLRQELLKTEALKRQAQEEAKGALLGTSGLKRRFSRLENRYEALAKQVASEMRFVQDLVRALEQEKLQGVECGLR
363 human kinases (including Aurora A/B/C) (Homo sapiens, UniProt P31751), sequence (P31751 whole entry): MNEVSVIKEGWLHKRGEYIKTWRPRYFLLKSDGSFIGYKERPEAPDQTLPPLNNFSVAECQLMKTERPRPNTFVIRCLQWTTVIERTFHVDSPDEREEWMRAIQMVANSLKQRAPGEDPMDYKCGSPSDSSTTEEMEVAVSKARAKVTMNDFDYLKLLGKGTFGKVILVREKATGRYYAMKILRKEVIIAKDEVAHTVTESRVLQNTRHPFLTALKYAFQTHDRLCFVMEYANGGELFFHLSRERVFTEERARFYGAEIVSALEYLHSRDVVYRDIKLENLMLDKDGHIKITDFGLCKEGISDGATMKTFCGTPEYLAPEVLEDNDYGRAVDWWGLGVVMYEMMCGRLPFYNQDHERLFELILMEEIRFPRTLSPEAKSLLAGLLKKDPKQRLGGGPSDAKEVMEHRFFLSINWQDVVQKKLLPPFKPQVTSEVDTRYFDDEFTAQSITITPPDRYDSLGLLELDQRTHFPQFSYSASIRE
363 human kinases (including Aurora A/B/C) (Homo sapiens, UniProt Q13464), sequence (Q13464 whole entry): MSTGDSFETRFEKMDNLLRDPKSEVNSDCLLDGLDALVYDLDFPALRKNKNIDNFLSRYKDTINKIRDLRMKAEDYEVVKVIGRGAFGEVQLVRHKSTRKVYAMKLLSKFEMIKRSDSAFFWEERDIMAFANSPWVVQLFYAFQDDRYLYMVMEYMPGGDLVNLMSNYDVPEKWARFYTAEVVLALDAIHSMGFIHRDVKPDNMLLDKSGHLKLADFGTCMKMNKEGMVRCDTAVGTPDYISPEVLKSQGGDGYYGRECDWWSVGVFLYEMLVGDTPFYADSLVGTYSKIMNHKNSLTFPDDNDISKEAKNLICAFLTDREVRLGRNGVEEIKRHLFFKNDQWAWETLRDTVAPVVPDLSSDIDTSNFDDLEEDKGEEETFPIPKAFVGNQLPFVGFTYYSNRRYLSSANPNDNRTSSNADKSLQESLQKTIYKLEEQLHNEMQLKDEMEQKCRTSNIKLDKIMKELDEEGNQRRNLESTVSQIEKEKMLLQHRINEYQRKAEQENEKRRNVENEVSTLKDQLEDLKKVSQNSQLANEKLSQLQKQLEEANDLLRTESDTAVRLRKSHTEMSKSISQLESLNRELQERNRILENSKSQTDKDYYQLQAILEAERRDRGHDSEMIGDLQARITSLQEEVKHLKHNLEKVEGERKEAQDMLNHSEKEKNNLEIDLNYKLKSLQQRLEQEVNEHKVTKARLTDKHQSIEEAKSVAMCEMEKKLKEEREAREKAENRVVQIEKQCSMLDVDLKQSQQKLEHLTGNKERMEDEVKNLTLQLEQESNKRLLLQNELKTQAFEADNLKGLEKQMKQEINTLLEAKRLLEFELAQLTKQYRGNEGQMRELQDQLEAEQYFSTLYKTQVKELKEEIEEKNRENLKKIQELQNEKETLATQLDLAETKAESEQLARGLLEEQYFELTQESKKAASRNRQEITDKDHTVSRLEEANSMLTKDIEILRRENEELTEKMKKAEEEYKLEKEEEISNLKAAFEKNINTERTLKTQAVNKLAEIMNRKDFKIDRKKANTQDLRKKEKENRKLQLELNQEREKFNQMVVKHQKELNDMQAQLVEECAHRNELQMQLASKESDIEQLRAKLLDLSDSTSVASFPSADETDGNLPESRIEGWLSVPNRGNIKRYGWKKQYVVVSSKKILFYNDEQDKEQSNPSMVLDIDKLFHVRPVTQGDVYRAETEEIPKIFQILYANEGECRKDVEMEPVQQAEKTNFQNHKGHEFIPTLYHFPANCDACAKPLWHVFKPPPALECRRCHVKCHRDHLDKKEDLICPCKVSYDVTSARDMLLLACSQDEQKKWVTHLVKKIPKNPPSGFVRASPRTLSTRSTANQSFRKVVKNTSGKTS
363 human kinases (including Aurora A/B/C) (Homo sapiens, UniProt P36507), sequence (P36507 whole entry): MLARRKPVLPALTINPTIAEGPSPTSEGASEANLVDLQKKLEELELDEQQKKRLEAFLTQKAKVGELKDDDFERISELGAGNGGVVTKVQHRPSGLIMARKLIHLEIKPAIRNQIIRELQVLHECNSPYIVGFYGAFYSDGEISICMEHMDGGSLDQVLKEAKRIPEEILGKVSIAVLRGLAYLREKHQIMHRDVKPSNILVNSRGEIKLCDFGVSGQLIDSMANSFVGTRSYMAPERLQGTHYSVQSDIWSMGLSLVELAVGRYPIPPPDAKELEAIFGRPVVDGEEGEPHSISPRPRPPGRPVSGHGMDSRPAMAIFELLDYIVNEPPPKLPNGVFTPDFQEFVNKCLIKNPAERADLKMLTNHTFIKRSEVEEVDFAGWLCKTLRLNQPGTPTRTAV
363 human kinases (including Aurora A/B/C) (Homo sapiens, UniProt Q9HAZ1), sequence (Q9HAZ1 whole entry): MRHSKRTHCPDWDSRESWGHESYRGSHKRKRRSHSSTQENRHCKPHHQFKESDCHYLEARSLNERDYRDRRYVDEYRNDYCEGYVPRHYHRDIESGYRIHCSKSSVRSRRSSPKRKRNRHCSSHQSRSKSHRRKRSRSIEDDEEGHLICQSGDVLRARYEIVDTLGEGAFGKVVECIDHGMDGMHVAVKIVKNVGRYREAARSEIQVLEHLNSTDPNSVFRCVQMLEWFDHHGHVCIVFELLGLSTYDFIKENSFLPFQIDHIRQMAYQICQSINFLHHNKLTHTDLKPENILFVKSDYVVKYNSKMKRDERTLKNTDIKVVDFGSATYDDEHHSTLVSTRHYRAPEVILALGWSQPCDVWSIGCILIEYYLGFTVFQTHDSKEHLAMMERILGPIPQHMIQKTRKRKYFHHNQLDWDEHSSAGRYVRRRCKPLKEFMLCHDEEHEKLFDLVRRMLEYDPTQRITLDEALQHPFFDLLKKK
363 human kinases (including Aurora A/B/C) (Homo sapiens, UniProt Q6IQ55), sequence (Q6IQ55 whole entry): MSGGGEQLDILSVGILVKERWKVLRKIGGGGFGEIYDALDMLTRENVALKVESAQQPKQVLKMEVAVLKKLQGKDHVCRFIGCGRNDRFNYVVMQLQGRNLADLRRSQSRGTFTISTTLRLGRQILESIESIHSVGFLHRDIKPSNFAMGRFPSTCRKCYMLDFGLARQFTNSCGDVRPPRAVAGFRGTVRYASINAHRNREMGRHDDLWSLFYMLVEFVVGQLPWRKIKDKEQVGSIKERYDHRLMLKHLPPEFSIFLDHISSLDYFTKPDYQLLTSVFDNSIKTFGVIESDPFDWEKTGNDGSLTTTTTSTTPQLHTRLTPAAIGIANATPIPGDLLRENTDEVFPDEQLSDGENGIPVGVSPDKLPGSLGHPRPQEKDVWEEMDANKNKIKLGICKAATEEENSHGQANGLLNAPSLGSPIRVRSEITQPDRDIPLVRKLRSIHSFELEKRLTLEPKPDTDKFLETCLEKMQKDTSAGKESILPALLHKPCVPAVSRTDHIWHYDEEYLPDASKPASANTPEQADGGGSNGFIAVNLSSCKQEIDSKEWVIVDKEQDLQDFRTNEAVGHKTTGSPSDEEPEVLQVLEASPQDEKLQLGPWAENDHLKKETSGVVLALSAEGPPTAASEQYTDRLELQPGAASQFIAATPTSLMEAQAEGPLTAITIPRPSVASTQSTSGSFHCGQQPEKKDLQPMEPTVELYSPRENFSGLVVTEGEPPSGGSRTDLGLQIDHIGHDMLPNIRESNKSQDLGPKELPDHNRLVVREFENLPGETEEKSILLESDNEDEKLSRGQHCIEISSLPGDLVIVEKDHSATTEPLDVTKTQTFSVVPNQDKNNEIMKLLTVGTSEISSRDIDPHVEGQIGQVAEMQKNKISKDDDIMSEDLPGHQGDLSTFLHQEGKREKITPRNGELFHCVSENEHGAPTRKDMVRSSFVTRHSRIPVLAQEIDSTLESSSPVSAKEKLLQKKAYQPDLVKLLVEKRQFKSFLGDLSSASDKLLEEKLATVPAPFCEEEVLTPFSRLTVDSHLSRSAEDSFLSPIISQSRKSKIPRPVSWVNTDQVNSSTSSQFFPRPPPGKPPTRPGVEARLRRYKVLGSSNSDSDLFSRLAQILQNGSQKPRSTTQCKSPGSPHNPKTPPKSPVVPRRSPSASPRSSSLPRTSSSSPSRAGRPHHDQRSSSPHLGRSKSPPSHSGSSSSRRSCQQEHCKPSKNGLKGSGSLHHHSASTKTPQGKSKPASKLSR

For `O=C(c1cccc(Cl)c1F)N1CCN(Cc2cccc(Nc3nccs3)n2)CC1` [MK-8745], the “% Enzyme Activity (relative to DMSO controls)” value in [1] (500 nM) worked out at 93.58%; in [2] (500 nM), 57.02%; in experiment [3] (500 nM), 93.13%; in experiment [4] (IKKe/IKBKE, 500 nM), 89.47%; in experiment [5] (500 nM), 109.64%; in experiment [6] (500 nM), 96.21%. For the same compound, the entries for the “% Enzyme Activity (relative to DMSO controls)” value in experiment [7] (500 nM), in experiment [8] (500 nM) and in experiment [9] (500 nM) were 95.49%, 93.95% and 98.74%, respectively. The remaining activity at 0.5 µM came out at 95.5% in experiment [1] (500 nM); 59.9% in [2] (500 nM); 95.2% in experiment [3] (500 nM); 92.2% in experiment [4] (setting [10]); 110% in experiment [5] (500 nM); 96.8% in experiment [6] (500 nM). The values for the remaining activity at 0.5 µM in [7] (500 nM), in experiment [8] (500 nM) and in [9] (500 nM) were 98.3%, 96.7% and 98.9%, respectively.
For the compound `CCn1cc(-c2ccnc3[nH]c(-c4cccc(CN(C)C)c4)cc23)c(-c2ccc(NC(=O)N(C)C)cc2)n1` [GSK1070916], the remaining activity at 0.1 µM in [1] worked out at 91.4%; in experiment [2] it was 70.3%; in [3] it was 98.2%; in experiment [4] (read-out: % Enzyme Activity (relative to DMSO controls), IKKe/IKBKE), 84.4%; in experiment [5], 119%; in [6], 95.8%. Further, the remaining activity at 0.1 µM in [7] is 101%; in experiment [8], 97.5%; in experiment [9] it was 101%.
In the case of `O=C(O)[C@]1(Cc2cccc(Nc3nccs3)n2)CC[C@@H](Oc2cccc(Cl)c2F)CC1` [MK-5108], the remaining activity at 0.1 µM is 97.8% in experiment [1]; 34.9% in [2]; 95.6% in experiment [3]; 98.3% in [4] (IKKe/IKBKE, read-out: % Enzyme Activity (relative to DMSO controls)); 99.8% in [5]; 94.5% in [6]. The results for the remaining activity at 0.1 µM in [7], in experiment [8] and in experiment [9] were 95.6%, 100% and 99.8%, respectively. Further, the remaining activity at 0.5 µM in experiment [1] (500 nM) turned out to be 92.6%; in experiment [2] (500 nM), 6.67%; in experiment [3] (500 nM), 90.3%; in experiment [4] (setting [10]), 80.6%; in experiment [5] (500 nM), 111%; in [6] (500 nM) it was 107%. In addition, the figures for the remaining activity at 0.5 µM in [7] (500 nM), in [8] (500 nM) and in [9] (500 nM) were 94.5%, 89.7% and 102%, respectively.

(Values after publication PMC4685510, “A Cell Biologist’s Field Guide to Aurora Kinase Inhibitors” (Frontiers in Oncology, 2015).)
